Data taken from patent US6646006B2, “Enhancement of vascular function by modulation of endogenous nitric oxide production or activity” (The Board of Trustees of the Leland Stanford Junior …, priority 1993, dated 2003).

Experiments:
[1] = tested on: hypercholesterolemic rabbits; test: Histomorphometry and lesion surface area planimetry of thoracic aorta and left main coronary artery; type: in vivo, rabbit
Excerpt: Study design: (See, Cooke et al., 1992, supra) Male New Zealand white rabbits (n=49) were assigned to one of three treatment groups: 10 were fed with normal rabbit chow for ten weeks (Control); 19 received chow enriched with 1% cholesterol (Chol); and 20 received a 1% cholesterol diet supplemented with 2.25% L-arginine hydrochloride in the drinking water (Arg.). […] Subsequently the animals were sacrificed and the left main coronary artery and the thoracic aorta were harvested for studies of vascular reactivity and histomorphometry. In some animals, blood was collected for studies of platelet and monocyte reactivity.
By contrast, the intimal cross-sectional area (i.e. amount of atherosclerotic plaque) of vessels from hypercholesterolemic animals receiving L-arginine supplementation was reduced in comparison to those from animals receiving cholesterol diet alone. In the Arg animals the reduction in the intimal lesion was most pronounced in the ascending thoracic aorta and left main coronary artery.
Changes in lesion surface area: In a second series of studies, the extent of the thoracic aorta involved by lesions was examined. In hypercholesterolemic rabbits receiving vehicle (n=6) or L-arginine supplement (n=6), thoracic aortae (from left subclavian artery to diaphragm) were harvested after ten weeks of treatment, bisected longitudinally, and stained with oil-red O. Vessels were photographed and vessel and lesion surface area determined by planimetry. Approximately 40% of the total surface area was covered with plaque in thoracic aortae from hypercholesterolemic animals receiving vehicle, whereas in thoracic aortae from arginine-treated hypercholesterolemic animals, less than 10% of the surface area was covered with plaque (FIG. 1).

[2] = tested on: monocytes; test: Functional binding assay: rabbit blood mononuclear cells to bEnd3 endothelial cells; type: in vivo; settings: Arg vs vehicle-treated Chol animals
Excerpt: To determine if oral arginine supplementation affects monocyte adherence, blood was collected from rabbits fed normal chow (=6) a 1% cholesterol diet (=6), or a 1% cholesterol diet supplemented with L-arginine (=6), as described above. Mononuclear cells were purified from blood by Ficoll-paque density gradient centrifugation. In these preliminary studies, adhesion was examined of blood leukocytes to a transformed endothelial cell line, bEnd3 (mouse brain-derived polyoma middle T antigen transformed endothelial cells). The Bend3 cells display the morphology of endothelial cells, and like human endothelial cells are capable of uptake of acetylated low-density lipoprotein and express adhesion molecules in a cytokine-regulatable fashion. Cultured cells were grown to confluence in 0.5 cm^2 Lab-Tek chamber slides (MilesScientific) and treated with control medium or with LPS (1 mg/ml) or TNFα (25 U/ml) for 18 hours. Cultures were washed with fresh assay buffer, and low, medium, or high concentrations of leukocytes (0.75, 1.5, or 3×10^5 cells/ml, respectively) were added per well. Following a 30-minute incubation on a rocking platform at room temperature to allow binding, the slides were inverted and immersed in buffer containing 2% (v/v) glutaraldehyde, such that non-adherent cells were lost and adherent cells were fixed to the monolayer. […]

N=C(N)NCCC[C@H](N)C(=O)O [L-arginine]
atherosclerotic plaque in the left main coronary artery ([1]; hypercholesterolemic animals receiving arginine): essentially no atherosclerotic plaque developed
surface area of thoracic aorta covered with plaque ([1]; ten weeks, oil-red O, planimetry): less than 10%
intimal cross-sectional area (amount of atherosclerotic plaque) ([1]; vs cholesterol diet alone): reduced
adherence of monocytes to bEnd3 cells [2]: much less adherent
